Patent publication US11787816B2, “Chlorin compound, and preparation and use thereof” (Southwest Jiaotong University, priority 2021, dated 2023)

How the values were obtained:
[1] = system: human hepatocellular carcinoma huh-7 cells; test: Photosensitizer-mediated PDT, in vitro proliferation (MTT), huh-7; type: cell-based
Procedure: (§1) Several kinds of tumor cells (human cervical cancer Hela cells, human hepatocellular carcinoma huh-7 cells and murine mammary carcinoma 4T1 cells) cultured in vitro from a variety of tissues were taken as cell models, so as to investigate the photodynamic effects mediated by different doses of CEFN, CEFO, Ce6 and HPPH on the three different tumor cells (n=3). The specific experimental procedures were carried out as follows.
(§2) Cells in the logarithmic growth phase were harvested and seeded in a 24-well plate. After growing to a confluence of 70-80%, the cells were randomly divided into a control group (free of drug and light irradiation), a drug group and a photodynamic group. The CEFN, CEFO, Ce6 and HPPH were added respectively in dark, and for each drug, four final concentrations 1, 2, 5, and 10 μg/mL were set with 3 replicates for each group. After the co-incubation, the groups were treated individually. Regarding the photodynamic group, the light irradiation was performed at a wavelength of 660 nm and three different light intensities, i.e., 2, 4 and 8 J/cm^2. After that, each group was digested, and were inoculated into a 96-well plate at 100 μL per well with 4 replicates for each treatment. 24 hours later, the 96-well plate was subjected to MTT assay as follows. Each well was added with 20 μL of MTT (3-4,5-dimethylthiazol-2,5-diphenyltetrazolium bromide) solution in the dark and incubated for 4 hours. The supernatant was discarded, and the residue was dissolved with 150 μL of dimethyl sulfoxide for 15 min. After that, the 96-well plate was measured by a microplate reader for the absorbance (OD value). The relative cell viability was calculated as follows: relative cell viability=OD value of experimental group/OD value of control group*100%.

[2] = background statement; cited from earlier work
[3] = system: murine mammary carcinoma 4T1 cells; test: Antitumor activity as photosensitizers on tumor-bearing mice (one PDT treatment); type: in vivo; settings: for Inhibitory rate (average ± SD, %) / Tumor weight (average ± SD, g): 660 nm, 75 Joule/cm^2 6 h after dosing, 7 days after PDT; for Body weight At the begining / Body weight At the end: one PDT treatment, mice, in g (unit assumed)
Procedure: (§3) The murine mammary carcinoma cells (4T1 line) were subjected to adherent culture. After growing to a confluence of 70%-80%, the cells in the culture flask were routinely digested, centrifuged and counted, and then resuspended with 0.85% normal saline to a density of 1×10^7 cells/mL. The cell suspension was injected into the left lateral middle axillary subcutaneous part of […] Bal b/c healthy mice (female, aged 6-8 weeks) at 0.1 mL/mouse. When the tumor diameter, which was observed every other day, reached 0.6-0.8 cm, the mice with well-growing tumors and no ulcers on the epidermis were selected for grouped treatment.
(1) Mice with similar body weight and uniform tumor size are selected and randomly divided into 7 groups with 6 mice for each group. After inoculation for 48 h, the mice were subjected to drug administration separately from the tail vein by group.
6 h after the drug administration, the mice were fixed to expose the tumor growth site. Light irradiation was performed for 8 min, using PDT-660 photodynamic therapy equipment at a laser wavelength of 660 nm and a light dose of 75 Joule/cm^2. Then both of the mice growth and tumor growth are observed continuously. 7 days after photodynamic therapy, the animals were sacrificed. The tumor was stripped and weighed, and the body weight was recorded.

[4] = system: murine mammary carcinoma 4T1 cells; test: Antitumor activity as photosensitizers on tumor-bearing mice (two PDT treatments); type: in vivo
Procedure: as §3
(2) Mice with similar body weight and uniform tumor size are selected and randomly divided into 4 groups with 6 mice for each group. After inoculation of 4T1 cells and the tumor volume grows to 50˜80 mm^3, the mice were subjected to a first drug administration from the tail vein by group.
6 h after the drug administration, the mice were fixed to expose the tumor growth site. As a first PDT treatment, light irradiation was performed for 8 min, using PDT-660 photodynamic therapy equipment at the laser wavelength of 660 nm and the light dose of 150 Joule/cm^2. One week later, the second PDT treatment (the dosage and lighting conditions were the same as those of the first PDT treatment) was performed. The mice were sacrificed 14 days after the treatment. The tumor was removed, weighed and recorded.

[5] = system: human cervical cancer Hela cells; test: Photosensitizer-mediated PDT, in vitro proliferation (MTT), Hela; type: cell-based; settings: Hela
Procedure: as §1, §2

[6] = system: murine mammary carcinoma 4T1 cells; test: Photosensitizer-mediated PDT, in vitro proliferation (MTT), 4T1; type: cell-based
Procedure: as §1, §2
In this experiment, photodynamic effect mediated by the compounds (except CEFO and CEFN) in different Examples of this disclosure on the murine mammary carcinoma 4T1 cells was investigated. The experimental procedures are carried out as follows. Cells in the logarithmic growth phase were harvested and seeded in a 24-well plate. After growing to a confluence of 70-80%, the cells were randomly divided into multiple photodynamic groups and multiple no-light control groups. The compounds (as shown in Table 8a) with a final concentration of 10 μg/mL were added to each group respectively in dark with 3 replicates for each group, so as to co-incubate the cells with the drug. Regarding the multiple photodynamic groups, the light irradiation was performed at a wavelength of 660 nm and the light intensity of 8 J/cm^2. After that, each group was digested, and were inoculated into a 96-well plate at 100 μL per well with 4 replicates for light treatment and no light treatment. 24 hours later, the 96-well plate was measured by MTT assay as follows. Each well was added with 20 μL of MTT (3-4,5-dimethylthiazol-2,5-diphenyltetrazolium bromide) solution in the dark and incubated for 4 hours. The supernatant was discarded, and the residue was dissolved with 150 μL of dimethyl sulfoxide for 15 min. After that, the 96-well plate was measured by a microplate reader for the absorbance (OD value). The relative cell viability of the murine mammary carcinoma 4T1 cells was calculated as follows according to the measured absorbance (OD value) in each group: relative cell viability=OD value of experimental group/OD value of control group*100%.

[7] = 0.25 mg/kg tail vein, two PDT treatments one week apart, 660 nm, 150 Joule/cm^2, 14 days after treatment
[8] = 0.25 mg/kg, two PDT treatments, mice, in g (unit assumed)

SMILES: CCCCCCOC(C)c1c(C)c2cc3nc(c4c5[nH]c(cc6nc(cc1[nH]2)C(C)=C6CC)c(C)c5C(=O)C4)[C@@H](CCC(=O)O)[C@@H]3C (stereo partly shown) [HPPH, 2-(1-hexyloxyethyl)-2-devinyl pyropheophorbide-a, reference compound]
- cell viability (%) ([1]; 1 μg/mL, 660 nm, 8 J/cm^2): 68 ± 3%
- cell viability (%) ([1]; 1 μg/mL, no light): 102 ± 4%
- cell viability (%) ([1]; 2 μg/mL, 660 nm, 8 J/cm^2): 37 ± 3%
- cell viability (%) ([1]; 2 μg/mL, no light): 98 ± 2%
- cell viability (%) ([1]; 5 μg/mL, 660 nm, 8 J/cm^2): 26 ± 2%
- cell viability (%) ([1]; 5 μg/mL, no light): 97 ± 1%
- cell viability (%) ([1]; 10 μg/mL, 660 nm, 8 J/cm^2): 12 ± 2%
- cell viability (%) ([1]; 10 μg/mL, no light): 101 ± 4%
- water solubility [2]: water-insoluble
- Inhibitory rate (average ± SD, %) ([3]; 0.2 mg/kg tail vein): 72.2 ± 3.5%
- Tumor weight (average ± SD, g) ([3]; 0.2 mg/kg tail vein): 0.045 ± 0.006 g
- Body weight At the begining ([3]; 0.2 mg/kg): 20.5 ± 0.4
- Body weight At the end ([3]; 0.2 mg/kg): 21.6 ± 0.4
- Inhibitory rate (average ± SD, %) ([3]; 0.4 mg/kg tail vein): 89.5 ± 2.5%
- Tumor weight (average ± SD, g) ([3]; 0.4 mg/kg tail vein): 0.017 ± 0.004 g
- Body weight At the begining ([3]; 0.4 mg/kg): 20.7 ± 0.3
- Body weight At the end ([3]; 0.4 mg/kg): 21.8 ± 0.2
- Inhibitory rate (average ± SD, %) [4, 7]: 90.7 ± 2.1%
- Tumor weight (average ± SD, g) [4, 7]: 0.088 ± 0.020 g
- Body weight At the beginning [4, 8]: 20.5 ± 0.4
- Body weight At the end [4, 8]: 22.5 ± 0.2
- cell viability (%) ([5]; 1 μg/mL, 660 nm, 8 J/cm^2): 65 ± 4%
- cell viability (%) ([5]; 1 μg/mL, no light): 100 ± 3%
- cell viability (%) ([5]; 2 μg/mL, 660 nm, 8 J/cm^2): 46 ± 1%
- cell viability (%) ([5]; 2 μg/mL, no light): 100 ± 2%
- cell viability (%) ([5]; 5 μg/mL, 660 nm, 8 J/cm^2): 25 ± 2%
- cell viability (%) ([5]; 5 μg/mL, no light): 102 ± 3%
- cell viability (%) ([5]; 10 μg/mL, 660 nm, 8 J/cm^2): 12 ± 4%
- cell viability (%) ([5]; 10 μg/mL, no light): 96 ± 4%
- cell viability (%) ([6]; 1 μg/mL, 660 nm, 8 J/cm^2): 83 ± 3%
- cell viability (%) ([6]; 1 μg/mL, no light): 107 ± 4%
- cell viability (%) ([6]; 2 μg/mL, 660 nm, 8 J/cm^2): 53 ± 2%
- cell viability (%) ([6]; 2 μg/mL, no light): 103 ± 2%
- cell viability (%) ([6]; 5 μg/mL, 660 nm, 8 J/cm^2): 33 ± 2%
- cell viability (%) ([6]; 5 μg/mL, no light): 98 ± 1%
- cell viability (%) ([6]; 10 μg/mL, 660 nm, 8 J/cm^2): 11 ± 2%
- cell viability (%) ([6]; 10 μg/mL, no light): 99 ± 44%
